Read-outs that look alike come from different tables or passages of the source. Blank lines part the entries; values can stand above or below the compound they belong to.
Key:
[1] = target: T1, baculovirus-expressed ALK (Homo sapiens, UniProt Q9UM73); experiment: ALK Kinase Assay (ELISA-type, time-resolved fluorescence); assay type: biochemical
T1 construct: host or cells: baculovirus expression system
How it was run: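 Wells were coated with phospholipase C-γ at 10 μg/mL in Tris-buffered saline. Adding 30 ng/ml enzyme started the reaction, which ran at 37° C for 15 minutes before Eu-N1 PT66 antibody detection. Percent inhibition versus log10 concentration gave IC50 by variable-slope fit.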

[2] = target: T2, c-Met (cytoplasmic domain) (Homo sapiens, UniProt P08581); experiment: c-Met Kinase Assay (same methods as for ALK, with modifications); assay type: biochemical
T2 construct: 10 ng/mL c-Met (cytoplasmic domain, Invitrogen Corporation #PV3143); purchased Invitrogen Corporation PV3143
How it was run: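 Steps: coat wells with PLC-γ (10 μg/mL, Tris-buffered saline); add 10 ng/mL c-Met cytoplasmic domain to initiate; incubate 15 min, 37° C; detect phosphoproduct via Eu-N1 PT66 antibody.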

[3] = 1 μM ATP (Km level), 30 ng/ml ALK, 37° C., 15 minutes, read-out: ALK Activity (ALK kinase inhibition, IC50 class)
[4] = 1 μM ATP (Km level), 10 ng/mL c-Met, read-out: cMet Activity (c-Met kinase inhibition, IC50 class)
[5] = 1 μM ATP (Km level), read-out: ALK Activity (ALK Kinase Inhibition, IC50)
[6] = 1 μM ATP (Km level), read-out: cMet Activity (c-Met Kinase Inhibition, IC50)
[7] = ALK kinase inhibition, 1 μM ATP, read-out: ALK Activity
[8] = c-Met kinase inhibition, 1 μM ATP, read-out: cMet Activity
[9] = ALK kinase inhibition, 1 μM ATP (Km level), read-out: ALK Activity
[10] = c-Met kinase inhibition, 1 μM ATP (Km level), read-out: cMet Activity

T1 sequence (Q9UM73 19-1620): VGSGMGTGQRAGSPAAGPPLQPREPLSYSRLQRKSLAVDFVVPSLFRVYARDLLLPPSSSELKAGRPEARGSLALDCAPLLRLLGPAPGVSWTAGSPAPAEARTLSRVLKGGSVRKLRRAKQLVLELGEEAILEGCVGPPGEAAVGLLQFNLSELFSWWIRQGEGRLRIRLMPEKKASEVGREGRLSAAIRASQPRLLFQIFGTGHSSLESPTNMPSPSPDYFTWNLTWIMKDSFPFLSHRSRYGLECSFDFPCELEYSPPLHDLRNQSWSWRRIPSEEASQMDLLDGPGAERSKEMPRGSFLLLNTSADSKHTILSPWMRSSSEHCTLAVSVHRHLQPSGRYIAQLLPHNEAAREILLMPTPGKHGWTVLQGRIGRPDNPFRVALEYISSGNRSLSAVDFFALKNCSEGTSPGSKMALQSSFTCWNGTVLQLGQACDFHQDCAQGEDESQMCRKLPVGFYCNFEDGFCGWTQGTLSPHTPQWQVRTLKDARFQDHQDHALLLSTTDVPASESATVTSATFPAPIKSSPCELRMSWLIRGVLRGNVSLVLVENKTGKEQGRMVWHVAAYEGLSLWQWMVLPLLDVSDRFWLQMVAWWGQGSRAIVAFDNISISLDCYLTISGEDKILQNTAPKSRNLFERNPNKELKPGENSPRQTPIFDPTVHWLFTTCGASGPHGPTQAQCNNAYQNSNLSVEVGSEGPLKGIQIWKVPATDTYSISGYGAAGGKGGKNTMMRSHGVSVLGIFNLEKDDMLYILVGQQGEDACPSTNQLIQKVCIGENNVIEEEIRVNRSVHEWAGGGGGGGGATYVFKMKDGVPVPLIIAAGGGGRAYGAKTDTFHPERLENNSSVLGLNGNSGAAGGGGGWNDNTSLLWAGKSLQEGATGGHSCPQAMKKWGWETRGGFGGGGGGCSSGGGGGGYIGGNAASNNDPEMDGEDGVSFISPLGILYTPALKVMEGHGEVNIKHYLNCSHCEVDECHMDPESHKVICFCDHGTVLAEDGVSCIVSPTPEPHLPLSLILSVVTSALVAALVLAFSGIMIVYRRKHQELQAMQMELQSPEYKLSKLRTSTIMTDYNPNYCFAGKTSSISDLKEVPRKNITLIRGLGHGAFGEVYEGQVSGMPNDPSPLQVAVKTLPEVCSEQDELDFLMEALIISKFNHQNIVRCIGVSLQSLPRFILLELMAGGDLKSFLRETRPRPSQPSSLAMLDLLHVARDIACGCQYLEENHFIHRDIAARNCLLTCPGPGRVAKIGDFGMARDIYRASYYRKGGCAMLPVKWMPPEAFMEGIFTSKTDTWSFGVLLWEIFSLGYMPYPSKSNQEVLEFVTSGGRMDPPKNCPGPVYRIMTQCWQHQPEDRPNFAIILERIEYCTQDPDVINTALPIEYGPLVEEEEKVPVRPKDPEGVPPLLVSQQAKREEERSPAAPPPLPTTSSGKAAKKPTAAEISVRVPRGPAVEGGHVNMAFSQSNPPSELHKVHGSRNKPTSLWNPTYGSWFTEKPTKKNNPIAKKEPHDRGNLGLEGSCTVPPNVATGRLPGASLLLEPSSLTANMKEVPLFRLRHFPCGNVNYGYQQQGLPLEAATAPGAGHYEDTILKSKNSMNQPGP
T2 sequence (P08581 956-1390 limits assumed): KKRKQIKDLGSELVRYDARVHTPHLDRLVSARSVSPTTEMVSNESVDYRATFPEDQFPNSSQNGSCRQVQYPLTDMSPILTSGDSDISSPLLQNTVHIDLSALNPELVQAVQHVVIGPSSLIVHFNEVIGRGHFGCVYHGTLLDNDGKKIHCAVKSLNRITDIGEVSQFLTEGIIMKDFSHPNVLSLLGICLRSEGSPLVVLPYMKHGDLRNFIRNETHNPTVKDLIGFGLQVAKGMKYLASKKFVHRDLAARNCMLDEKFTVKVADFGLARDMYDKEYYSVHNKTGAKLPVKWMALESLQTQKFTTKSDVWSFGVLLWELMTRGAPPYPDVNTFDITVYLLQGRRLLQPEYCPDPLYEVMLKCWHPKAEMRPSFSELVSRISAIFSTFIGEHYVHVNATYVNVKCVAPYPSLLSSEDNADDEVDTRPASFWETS

IC50 [1, 3]: < 100 nM | IC50 [2, 4]: > 10000 nM
SMILES: COCCOc1ccc(Nc2nc(Nc3cc4c(cc3OC)CCN(Cc3nccn3C)CC4)ncc2Cl)c(OC)c1 [Example 1175, 5-Chloro-N*4*-[2-methoxy-4-(2-methoxy-ethoxy)-phenyl]-N*2*-[8-methoxy-3-(1-methyl-1H-imidazol-2-ylmethyl)-2,3,4,5-tetrahydro-1H-benzo[d]azepin-7-yl]-pyrimidine-2,4-diamine]

IC50 [1, 5]: 100 to 1000 nM | IC50 [2, 6]: 100 to 1000 nM
SMILES: COCCN1CCc2ccc(Nc3ncc(Cl)c(Nc4cc(C(N)=O)n[nH]4)n3)cc2CC1 [Example 954, 5-{5-Chloro-2-[3-(2-methoxy-ethyl)-2,3,4,5-tetrahydro-1H-3-benzazepin-7-ylamino]-pyrimidin-4-ylamino}-1H-pyrazole-3-carboxylic acid amide]

IC50 [1, 7]: 1000 to 10000 nM | IC50 [2, 8]: < 100 nM
SMILES: CNC(=O)c1cc(C)cc(C)c1Nc1nc(Nc2ccc3c(c2)CCOC(=O)N3C)ncc1Cl [Example 1750, 2-[5-Chloro-2-(5-methyl-6-oxo-5,6,8,9-tetrahydro-7-oxa-5-aza-benzocyclohepten-2-ylamino)-pyrimidin-4-ylamino]-3,5,N-trimethyl-benzamide]

IC50 [1, 3]: < 100 nM | IC50 [2, 4]: > 10000 nM
SMILES: CCN1C(=O)[C@@H](NC(=O)CN(C)C)CCc2c1ccc(Nc1ncc(Cl)c(N[C@H]3[C@@H](C(N)=O)[C@@H]4C=C[C@H]3C4)n1)c2OC (single isomer, unassigned) [Example 1355]

IC50 [1, 5]: < 100 nM | IC50 [2, 6]: > 10000 nM
SMILES: COc1cc2c(cc1Nc1ncc(Cl)c(Nc3ccc(C(F)(F)F)cc3S(=O)(=O)N(C)C)n1)CCN(CC(=O)N(C)C)CC2 [Example 843, 2-{7-[5-Chloro-4-(2-dimethylsulfamoyl-4-trifluoromethyl-phenylamino)-pyrimidin-2-ylamino]-8-methoxy-1,2,4,5-tetrahydro-benzo[d]azepin-3-yl}-N,N-dimethyl-acetamide]

SMILES: CNC(=O)c1ccccc1Nc1nc(Nc2ccc3c(c2)C2CCC(C3)N2C(=O)C2CC2)ncc1Cl (stereo not drawn) [Example 70, 2-[5-Chloro-2-(12-cyclopropanecarbonyl-12-aza-tricyclo[7.2.1.0*2,7*]dodeca-2(7),3,5-trien-4-ylamino)-pyrimidin-4-ylamino]-N-methyl-benzamide]
IC50 [1, 9]: < 100 nM | IC50 [2, 10]: < 100 nM

IC50 [1, 9]: < 100 nM | IC50 [2, 10]: 1000 to 10000 nM
SMILES: CCN1C(=O)C(C)(C)CCc2c1ccc(Nc1ncc(Cl)c(Nc3ccccc3C(=O)NC)n1)c2OC [Example 144, 2-[5-Chloro-2-(1-ethyl-6-methoxy-3,3-dimethyl-2-oxo-2,3,4,5-tetrahydro-1H-benzo[b]azepin-7-ylamino)-pyrimidin-4-ylamino]-N-methyl-benzamide]

IC50 [1, 9]: 1000 to 10000 nM | IC50 [2, 10]: < 100 nM
SMILES: CNC(=O)c1cccc(C)c1Nc1nc(Nc2ccc3c(c2)N(CCOC)C(=O)CCC3)ncc1Cl [Example 361, 2-{5-Chloro-2-[1-(2-methoxy-ethyl)-2-oxo-2,3,4,5-tetrahydro-1H-benzo[b]azepin-8-ylamino]-pyrimidin-4-ylamino}-3,N-dimethyl-benzamide]

IC50 [1, 9]: 100 to 1000 nM | IC50 [2, 10]: 1000 to 10000 nM
SMILES: CCN1CCc2ccc(Nc3ncc(Cl)c(NCCNS(C)(=O)=O)n3)cc2CC1 [Example 298, N-{2-[5-Chloro-2-(3-ethyl-2,3,4,5-tetrahydro-1H-benzo[d]azepin-7-ylamino)-pyrimidin-4-ylamino]-ethyl}-methanesulfonamide]

IC50 [1, 3]: < 100 nM | IC50 [2, 4]: < 100 nM
SMILES: CCCNC(=O)c1ccccc1Nc1nc(Nc2ccc3c(c2)CCCC(=O)N3)ncc1Cl [Example 1024, 2-[5-Chloro-2-(2-oxo-2,3,4,5-tetrahydro-1H-benzo[b]azepin-7-ylamino)-pyrimidin-4-ylamino]-N-propyl-benzamide]

IC50 [1, 7]: 100 to 1000 nM | IC50 [2, 8]: 100 to 1000 nM
SMILES: CCN1CCCC(C)(C)c2ccc(Nc3ncc(Cl)c(Nc4c(F)cccc4C(=O)NC)n3)cc21 [Example 1632, 2-[5-Chloro-2-(1-ethyl-5,5-dimethyl-2,3,4,5-tetrahydro-1H-benzo[b]azepin-8-ylamino)-pyrimidin-4-ylamino]-3-fluoro-N-methyl-benzamide]

IC50 [1, 3]: < 100 nM | IC50 [2, 4]: > 10000 nM
SMILES: COc1cc2c(cc1Nc1ncc(Cl)c(Nc3ccccc3S(=O)(=O)N(C)C)n1)CCC(NCC(F)F)CC2 (stereo not drawn) [Example 1055, 2-{5-Chloro-2-[7-(2,2-difluoro-ethylamino)-3-methoxy-6,7,8,9-tetrahydro-5H-benzocyclohepten-2-ylamino]-pyrimidin-4-ylamino}-N,N-dimethyl-benzenesulfonamide]

IC50 [1, 5]: < 100 nM | IC50 [2, 6]: > 10000 nM
SMILES: COc1cc2c(cc1Nc1ncc(Cl)c(NC3(CC(N)=O)CCCCC3)n1)CCN(CCO)CC2 [Example 849, 2-(1-{5-Chloro-2-[3-(2-hydroxy-ethyl)-8-methoxy-2,3,4,5-tetrahydro-1H-benzo[d]azepin-7-ylamino]-pyrimidin-4-ylamino}-cyclohexyl)-acetamide]

IC50 [1, 9]: < 100 nM | IC50 [2, 10]: < 100 nM
SMILES: CNC(=O)c1ccccc1Nc1nc(Nc2ccc3c(c2)COC[C@@H]2CCCN32)ncc1Cl [Example 12, 2-{5-Chloro-2-[(S)-(2,3,3a,4-tetrahydro-1H,6H-5-oxa-10b-aza-benzo[e]azulen-8-yl)amino]-pyrimidin-4-ylamino}-N-methyl-benzamide]

IC50 [1, 9]: < 100 nM | IC50 [2, 10]: < 100 nM
SMILES: CNC(=O)c1ccccc1Nc1nc(Nc2ccc3c(c2)CCN(C(=O)C(F)(F)F)CC3)ncc1Cl [Example 44, 2-{5-Chloro-2-[3-(2,2,2-trifluoro-acetyl)-2,3,4,5-tetrahydro-1H-benzo[d]azepin-7-ylamino]-pyrimidin-4-ylamino}-N-methyl-benzamide]

IC50 [1, 5]: < 100 nM | IC50 [2, 6]: > 10000 nM
SMILES: CC1(C)CCC(=O)Nc2ccc(Nc3ncc(Cl)c(Nc4ccccc4-c4nccs4)n3)cc21 [Example 978, 7-[5-Chloro-4-(2-thiazol-2-yl-phenylamino)-pyrimidin-2-ylamino]-5,5-dimethyl-1,3,4,5-tetrahydro-benzo[b]azepin-2-one]

IC50 [1, 3]: < 100 nM | IC50 [2, 4]: < 100 nM
SMILES: C#CCNC(=O)c1cccc(F)c1Nc1nc(Nc2ccc3c(c2)CCN(CCOC)CC3)ncc1Cl [Example 1403, 2-{5-Chloro-2-[3-(2-methoxy-ethyl)-2,3,4,5-tetrahydro-1H-benzo[d]azepin-7-ylamino]-pyrimidin-4-ylamino}-3-fluoro-N-prop-2-ynyl-benzamide]

IC50 [1, 7]: < 100 nM | IC50 [2, 8]: 1000 to 10000 nM
SMILES: CCN1CCCOc2cc(Nc3ncc(Cl)c(Nc4ccc(N5CCOCC5)cc4OC)n3)ccc21 [Example 1694, 5-Chloro-N*2*-(9-ethyl-6,7,8,9-tetrahydro-5-oxa-9-aza-benzocyclohepten-3-yl)-N*4*-(2-methoxy-4-morpholin-4-yl-phenyl)-pyrimidine-2,4-diamine]

IC50 [1, 3]: < 100 nM | IC50 [2, 4]: 1000 to 10000 nM
SMILES: COc1cc2c(cc1Nc1ncc(Cl)c(Nc3ccccc3S(=O)(=O)N3CCC(O)C3)n1)CCC(NCCO)CC2 (stereo not drawn) [Example 1088, 1-(2-{5-Chloro-2-[7-(2-hydroxy-ethylamino)-3-methoxy-6,7,8,9-tetrahydro-5H-benzocyclohepten-2-ylamino]-pyrimidin-4-ylamino}-benzenesulfonyl)-pyrrolidin-3-ol]

IC50 [1, 9]: < 100 nM | IC50 [2, 10]: < 100 nM
SMILES: CNC(=O)c1ccccc1Nc1nc(Nc2ccc3c(c2)CNC(=O)NC3)ncc1Cl [Example 227, 2-[5-Chloro-2-(3-oxo-2,3,4,5-tetrahydro-1H-benzo[e][1,3]diazepin-7-ylamino)-pyrimidin-4-ylamino]-N-methyl-benzamide]

IC50 [1, 3]: < 100 nM | IC50 [2, 4]: < 100 nM
SMILES: COCCN1CCc2ccc(Nc3ncc(Cl)c(Nc4c(F)cccc4C(=O)NCC#N)n3)cc2CC1 [Example 1079, 2-{5-Chloro-2-[3-(2-methoxy-ethyl)-2,3,4,5-tetrahydro-1H-benzo[d]azepin-7-ylamino]-pyrimidin-4-ylamino}-N-cyanomethyl-3-fluoro-benzamide]

IC50 [1, 7]: < 100 nM | IC50 [2, 8]: > 10000 nM
SMILES: COc1cc2c(cc1Nc1ncc(Cl)c(N[C@@H]3CCCC[C@H]3NS(C)(=O)=O)n1)NC(=O)CNC2 [Example 1655, N-{(1R,2R)-2-[5-Chloro-2-(7-methoxy-2-oxo-2,3,4,5-tetrahydro-1H-benzo[e][1,4]diazepin-8-ylamino)-pyrimidin-4-ylamino]-cyclohexyl}-methanesulfonamide]

IC50 [1, 7]: < 100 nM | IC50 [2, 8]: < 100 nM
SMILES: CN1CCN(C2CCN(C3CCc4ccc(Nc5ncc(Cl)c(Nc6c(F)cccc6OCC#N)n5)cc4CC3)CC2)CC1 (stereo not drawn) [Example 1483, [2-(5-Chloro-2-{7-[4-(4-methyl-piperazin-1-yl)-piperidin-1-yl]-6,7,8,9-tetrahydro-5H-benzocyclohepten-2-ylamino}-pyrimidin-4-ylamino)-3-fluoro-phenoxy]-acetonitrile]

IC50 [1, 9]: 1000 to 10000 nM | IC50 [2, 10]: > 10000 nM
SMILES: CCN1CCc2ccc(Nc3ncc(Cl)c(NC(C)(C)CNS(C)(=O)=O)n3)cc2CC1 [Example 307, N-{2-[5-Chloro-2-(3-ethyl-2,3,4,5-tetrahydro-1H-benzo[d]azepin-7-ylamino)-pyrimidin-4-ylamino]-2-methyl-propyl}-methanesulfonamide]

Reference: patent US8148391B2 (Cephalon, Inc., priority 2006, dated 2012)
